How the values were obtained:
[1] = tested on: HCT116 colorectal cancer cells; assay: Single agent HCT116 activity, 96 h cell viability (MTS) assay; assay type: cell-based; conditions: Homo sapiens, HCT-116; 96 h MTS cell viability; read-out: Single agent HT116 IC50
Method: Compounds can be screened for single agent activity against HCT116 colorectal cancer cells using a 96 h cell viability (MTS) assay. HCT116 are plated at 470 cells per well in 96-well polystyrene plates (Costar 3596) in 150 μl of McCoy's 5A media (Sigma M8403) supplemented with 10% foetal bovine serum (JRH Biosciences 12003), Penicillin/Streptomycin solution diluted 1:100 (Sigma P7539), and 2 mM L-glumtamine (Sigma G7513), and allowed to adhere overnight at 37° C. in 5% CO2. Compounds are then added to the cell media in 2-fold serial dilutions from a top final concentration of 10 μM as a full matrix of concentrations in a final cell volume of 200 μl, and the cells are then incubated at 37° C. in 5% CO2. After 96 h, 40 μl of MTS reagent (Promega G358a) is added to each well and the cells are incubated for 1 h at 37° C. in 5% CO2. Finally, absorbance is measured at 490 nm using a SpectraMax Plus 384 reader (Molecular Devices) and IC50 values can be calculated.

full-length ATR = biological target: T1, full-length ATR (Homo sapiens, UniProt Q13535); assay: ATR inhibition assay (radioactive-phosphate incorporation); assay type: biochemical; conditions: Ki(app), 5 nM full-length ATR, 10 μM ATP
T1 construct: Assays are carried out at 25° C. in the presence of 5 nM full-length ATR
T1 sequence (Q13535 whole entry): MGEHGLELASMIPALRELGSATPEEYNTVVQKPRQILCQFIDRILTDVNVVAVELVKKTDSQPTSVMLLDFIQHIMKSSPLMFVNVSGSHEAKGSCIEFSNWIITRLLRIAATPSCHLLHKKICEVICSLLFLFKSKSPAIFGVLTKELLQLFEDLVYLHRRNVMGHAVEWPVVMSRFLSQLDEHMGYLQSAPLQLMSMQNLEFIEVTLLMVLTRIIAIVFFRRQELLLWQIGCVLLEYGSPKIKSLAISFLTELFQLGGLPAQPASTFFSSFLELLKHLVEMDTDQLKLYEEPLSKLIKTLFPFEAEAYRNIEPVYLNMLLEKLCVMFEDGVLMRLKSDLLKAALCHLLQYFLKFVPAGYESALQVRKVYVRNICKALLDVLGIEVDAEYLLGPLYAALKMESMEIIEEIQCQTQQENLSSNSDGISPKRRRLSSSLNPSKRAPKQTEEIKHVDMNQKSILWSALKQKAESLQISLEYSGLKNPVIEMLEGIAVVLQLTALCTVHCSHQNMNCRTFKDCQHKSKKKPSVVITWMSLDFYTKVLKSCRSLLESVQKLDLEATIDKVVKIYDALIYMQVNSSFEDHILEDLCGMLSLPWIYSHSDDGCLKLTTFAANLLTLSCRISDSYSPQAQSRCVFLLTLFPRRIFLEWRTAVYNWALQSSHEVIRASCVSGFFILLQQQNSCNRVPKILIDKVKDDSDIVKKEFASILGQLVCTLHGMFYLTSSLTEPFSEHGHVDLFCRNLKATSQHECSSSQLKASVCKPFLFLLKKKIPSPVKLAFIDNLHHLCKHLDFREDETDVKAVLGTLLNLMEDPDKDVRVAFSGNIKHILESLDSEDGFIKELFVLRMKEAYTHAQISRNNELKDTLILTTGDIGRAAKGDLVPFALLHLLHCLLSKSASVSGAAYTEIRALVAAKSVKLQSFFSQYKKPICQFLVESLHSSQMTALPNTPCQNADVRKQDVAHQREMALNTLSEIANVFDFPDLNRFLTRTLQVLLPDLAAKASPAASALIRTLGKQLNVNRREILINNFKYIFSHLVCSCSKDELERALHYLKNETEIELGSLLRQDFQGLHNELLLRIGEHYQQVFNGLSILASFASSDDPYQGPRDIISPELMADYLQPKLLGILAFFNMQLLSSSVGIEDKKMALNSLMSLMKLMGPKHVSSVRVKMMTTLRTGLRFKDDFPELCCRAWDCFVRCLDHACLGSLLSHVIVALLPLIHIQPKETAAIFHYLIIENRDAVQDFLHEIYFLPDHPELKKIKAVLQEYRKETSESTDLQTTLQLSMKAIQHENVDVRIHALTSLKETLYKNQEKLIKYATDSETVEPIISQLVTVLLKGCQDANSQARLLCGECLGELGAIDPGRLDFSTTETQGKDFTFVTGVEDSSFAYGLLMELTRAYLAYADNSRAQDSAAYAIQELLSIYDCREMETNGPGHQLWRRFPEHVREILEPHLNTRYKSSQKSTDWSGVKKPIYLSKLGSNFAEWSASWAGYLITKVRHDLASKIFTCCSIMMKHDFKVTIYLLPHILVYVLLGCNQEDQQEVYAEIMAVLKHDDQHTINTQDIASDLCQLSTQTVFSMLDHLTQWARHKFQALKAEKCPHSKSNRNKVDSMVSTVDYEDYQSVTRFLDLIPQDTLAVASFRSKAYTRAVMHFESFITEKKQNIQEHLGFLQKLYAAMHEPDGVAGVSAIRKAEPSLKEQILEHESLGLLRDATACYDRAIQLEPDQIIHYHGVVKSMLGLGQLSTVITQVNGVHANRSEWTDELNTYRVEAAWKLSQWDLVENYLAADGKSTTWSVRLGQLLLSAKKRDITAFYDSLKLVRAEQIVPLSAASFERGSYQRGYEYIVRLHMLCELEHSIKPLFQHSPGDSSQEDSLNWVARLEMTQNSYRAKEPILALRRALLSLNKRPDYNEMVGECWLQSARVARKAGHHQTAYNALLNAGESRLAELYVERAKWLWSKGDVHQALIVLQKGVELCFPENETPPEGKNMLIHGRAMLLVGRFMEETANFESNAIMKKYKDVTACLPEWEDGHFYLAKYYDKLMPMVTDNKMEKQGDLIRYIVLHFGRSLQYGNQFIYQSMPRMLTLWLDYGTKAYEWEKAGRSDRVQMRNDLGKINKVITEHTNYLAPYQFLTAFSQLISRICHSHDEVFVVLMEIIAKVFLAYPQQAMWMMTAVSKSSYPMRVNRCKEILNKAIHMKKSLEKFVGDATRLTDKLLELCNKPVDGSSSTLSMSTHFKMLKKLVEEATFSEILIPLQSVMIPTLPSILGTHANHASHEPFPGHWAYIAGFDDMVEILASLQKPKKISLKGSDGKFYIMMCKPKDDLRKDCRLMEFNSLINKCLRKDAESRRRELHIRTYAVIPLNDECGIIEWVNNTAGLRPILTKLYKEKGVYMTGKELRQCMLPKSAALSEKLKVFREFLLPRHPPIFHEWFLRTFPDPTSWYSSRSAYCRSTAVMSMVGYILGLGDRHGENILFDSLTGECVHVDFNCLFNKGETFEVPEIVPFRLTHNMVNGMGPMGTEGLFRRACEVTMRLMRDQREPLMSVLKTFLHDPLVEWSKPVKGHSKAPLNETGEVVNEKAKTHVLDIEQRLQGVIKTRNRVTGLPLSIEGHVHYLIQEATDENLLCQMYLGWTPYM
Method: Compounds can be screened for their ability to inhibit ATR kinase using a radioactive-phosphate incorporation assay. Assays are carried out in a mixture of 50 mM Tris/HCl (pH 7.5), 10 mM MgCl2 and 1 mM DTT. Final substrate concentrations are 10 μM [γ-33P]ATP (3 mCi ^33P ATP/mmol ATP, Perkin Elmer) and 800 μM target peptide (ASELPASQPQPFSAKKK (SEQUENCE ID NO: 1)).
Assays are carried out at 25° C. in the presence of 5 nM full-length ATR. An assay stock buffer solution is prepared containing all of the reagents listed above, with the exception of ATP and the test compound of interest. 13.5 μL of the stock solution is placed in a 96 well plate followed by addition of 2 μL of DMSO stock containing serial dilutions of the test compound (typically starting from a final concentration of 15 μM with 3-fold serial dilutions) in duplicate (final DMSO concentration 7%). The plate is pre-incubated for 10 minutes at 25° C. and the reaction initiated by addition of 15 μL [γ-33P]ATP (final concentration 10 μM).
The reaction is stopped after 24 hours by the addition of 30 μL 0.1M phosphoric acid containing 2 mM ATP. A multiscreen phosphocellulose filter 96-well plate (Millipore, Cat no. MAPHN0B50) is pretreated with 100 μL 0.2M phosphoric acid prior to the addition of 45 μL of the stopped assay mixture. The plate is washed with 5×200 μL 0.2M phosphoric acid. After drying, 100 μL Optiphase ‘SuperMix’ liquid scintillation cocktail (Perkin Elmer) is added to the well prior to scintillation counting (1450 Microbeta Liquid Scintillation Counter, Wallac).
After removing mean background values for all of the data points, Ki(app) data are calculated from non-linear regression analysis of the initial rate data using the Prism software package (GraphPad Prism version 3.0cx for Macintosh, GraphPad Software, San Diego Calif., USA).

intracellular ATR = biological target: T2, intracellular ATR (Homo sapiens, UniProt Q13535); assay: Cellular ATR inhibition assay (H2AX phosphorylation in hydroxyurea treated HT29 cells); assay type: cell-based; conditions: 2 mM hydroxyurea, phosphorylated H2AX-positive nuclei
T2 construct: endogenous in cells; host or cells: HT29
T2 sequence (Q13535 whole entry): as above
T2 sequence (Q8WXE1 whole entry partner): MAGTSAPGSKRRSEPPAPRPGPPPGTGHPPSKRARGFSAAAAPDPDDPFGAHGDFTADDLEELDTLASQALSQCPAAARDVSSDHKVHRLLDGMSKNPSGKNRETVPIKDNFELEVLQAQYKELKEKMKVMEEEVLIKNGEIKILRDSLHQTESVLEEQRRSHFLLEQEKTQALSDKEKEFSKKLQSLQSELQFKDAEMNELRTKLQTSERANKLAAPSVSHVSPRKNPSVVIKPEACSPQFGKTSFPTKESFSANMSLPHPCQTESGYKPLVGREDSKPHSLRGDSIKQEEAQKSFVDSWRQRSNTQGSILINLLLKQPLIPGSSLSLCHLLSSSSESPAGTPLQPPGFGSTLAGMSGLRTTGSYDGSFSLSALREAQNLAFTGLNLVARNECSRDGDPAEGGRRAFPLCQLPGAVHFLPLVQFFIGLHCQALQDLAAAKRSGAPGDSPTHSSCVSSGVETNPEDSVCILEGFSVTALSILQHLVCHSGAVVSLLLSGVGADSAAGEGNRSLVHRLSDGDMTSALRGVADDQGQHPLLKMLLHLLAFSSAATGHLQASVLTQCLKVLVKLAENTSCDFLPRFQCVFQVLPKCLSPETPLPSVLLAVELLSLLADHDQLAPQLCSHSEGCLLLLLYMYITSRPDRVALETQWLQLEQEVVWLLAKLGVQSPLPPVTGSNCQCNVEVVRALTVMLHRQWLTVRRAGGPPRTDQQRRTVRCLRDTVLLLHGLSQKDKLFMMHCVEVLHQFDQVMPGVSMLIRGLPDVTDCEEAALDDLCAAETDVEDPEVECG
Method: Compounds can be screened for their ability to inhibit intracellular ATR using an immunofluorescence microscopy assay to detect phosphorylation of the ATR substrate histone H2AX in hydroxyurea treated cells. HT29 cells are plated at 14,000 cells per well in 96-well black imaging plates (BD 353219) in McCoy's 5A media (Sigma M8403) supplemented with 10% foetal bovine serum (JRH Biosciences 12003), Penicillin/Streptomycin solution diluted 1:100 (Sigma P7539), and 2 mM L-glumtamine (Sigma G7513), and allowed to adhere overnight at 37° C. in 5% CO2. Compounds are then added to the cell media from a final concentration of 25 μM in 3-fold serial dilutions and the cells are incubated at 37° C. in 5% CO2. After 15 min, hydroxyurea (Sigma H8627) is added to a final concentration of 2 mM.
After 45 min of treatment with hydroxyurea, the cells are washed in PBS, fixed for 10 min in 4% formaldehyde diluted in PBS (Polysciences Inc 18814), washed in 0.2% Tween-20 in PBS (wash buffer), and permeabilised for 10 min in 0.5% Triton X-100 in PBS, all at room temperature. The cells are then washed once in wash buffer and blocked for 30 min at room temperature in 10% goat serum (Sigma G9023) diluted in wash buffer (block buffer). […]
Cells are imaged for Alexa Fluor 488 and Hoechst intensity using the BD Pathway 855 Bioimager and Attovision software (BD Biosciences, Version 1.6/855) to quantify phosphorylated H2AX Ser139 and DNA staining, respectively. The percentage of phosphorylated H2AX-positive nuclei in a montage of 9 images at 20× magnification is then calculated for each well using BD Image Data Explorer software (BD Biosciences Version 2.2.15). […] The percentage of H2AX positive nuclei is finally plotted against concentration for each compound and IC50s for intracellular ATR inhibition are determined using Prism software (GraphPad Prism version 3.0cx for Macintosh, GraphPad Software, San Diego Calif., USA).

[2] = tested on: HCT116 colorectal cancer cells; assay: Cisplatin sensitization assay, 96 h cell viability (MTS); assay type: cell-based; conditions: concentration of compound required to reduce the IC50 of Cisplatin alone by at least 3-fold; HCT116, 96 h
Method: Compounds can be screened for their ability to sensitize HCT116 colorectal cancer cells to Cisplatin using a 96 h cell viability (MTS) assay. […] Compounds and Cisplatin are then both added simultaneously to the cell media in 2-fold serial dilutions from a top final concentration of 10 μM as a full matrix of concentrations in a final cell volume of 200 μl, and the cells are then incubated at 37° C. in 5% CO2. After 96 h, 40 μl of MTS reagent (Promega G358a) is added to each well and the cells are incubated for 1 h at 37° C. in 5% CO2. Finally, absorbance is measured at 490 nm using a SpectraMax Plus 384 reader (Molecular Devices) and the concentration of compound required to reduce the IC50 of Cisplatin alone by at least 3-fold (to 1 decimal place) can be reported.

[3] = Pharmacokinetics (noncompartmental, blood or plasma); conditions: in vivo, intravenous (IV) dosing
Excerpt: Noncompartmental pharmacokinetic parameters can be analyzed using Watson Bioanalytical LIMS (Version 7.4; Thermo Fisher Scientific) from either the blood or plasma samples. The following parameters are estimated following intravenous (IV) dosing; terminal elimination half-life (T1/2=ln(2)/λz, where λz is the first order rate constant associated with the terminal (log-linear) portion of the curve. The area under the curve (AUClast=area under the curve from the time of dosing to the last measurable concentration). The area under the curve extrapolated to infinity (AUC0-∞=AUClast+Clast/λz). The clearance (Cl; Cl=DoseIV/AUC0-∞).
The area under the first moment curve (AUMClast=area under the concentration times time versus time curve from the time of dosing to the last measurable concentration). The area under the first moment curve extrapolated to infinity (AUMC0-∞=AUMClast+Clast×t/λz+Clast/λz^2). The mean residence time (MRT=AUMC0-∞/AUC0-∞) and the steady state volume of distribution (Vdss=MRT×Cl).
Clearance and volume of distribution can also be obtained using methods known to one of skill in the art (see e.g., Handbook of Essential Pharmacokinetics, Pharmacodynamics and Drug Metabolism for Industrial Scientists, Younggil Kwon, pp 18-28 (Non-compartmental Approach)).

Colo205 model = assay: COLO205 model with irinotecan as the DNA damaging agent; assay type: in vivo, mouse
Excerpt: (§1) T/C=tumour size of treatment group compared with control group

primary NSCLC model = assay: Primary non-small cell lung cancer (NSCLC) model with cisplatin as the DNA damaging agent; assay type: in vivo, mouse
Excerpt: as §1

[4] = Mouse PO/PK in tumor (FIG. 6); assay type: in vivo; conditions: mouse grafted with tumors, compared with Compound P-110
Excerpt: FIG. 6: Mouse PO/PK in tumor

Compound	IC50 [1]	Ki (full-length ATR)	IC50 (intracellular ATR)	clearance [3]	half-life [3]	Vd ([3]; read-out: Vss)	Cisplatin sensitization [2]	% T/C (tumour size of treatment group compared with control group) (Colo205 model; day 13, irinotecan 20 mg/kg, compound 40 mg/kg PO qd3 of a four-day cycle, five cycles)	Effect on tumors (Colo205 model; irinotecan 20 mg/kg, compound orally as a solution 40 mg/kg, PO qd3, five cycles)	Effect on tumors (primary NSCLC model; cisplatin 3 mg/kg, compound 30 mg/kg uid q2d)	% T/C (tumour size of treatment group compared with control group) (primary NSCLC model; day 20, cisplatin 3 mg/kg, compound 30 mg/kg uid q2d)	Oral exposure in tumors [4]	Sensitization (Colo205 model; same model (irinotecan), compound 45 mg/kg twice a day (bid))	Sensitisation (primary NSCLC model; same model (cisplatin), compound 30 mpk bid (on/1 day off))
CC(C)S(=O)(=O)c1ccc(-c2cnc(N)c(-c3cc(-c4ccc(CNC5CCOCC5)cc4)no3)n2)cc1 [Compound I-1]	83 nM	0.14 nM	13 nM	7.1 mL/min/kg	4.7 h	2.8 L/kg	39 nM	10.9%	marked regression of tumors	marked regression of tumors	1.7%	created oral exposure in tumors compared with Compound P-110		
[2H]C([2H])([2H])C([2H])(C([2H])([2H])[2H])S(=O)(=O)c1ccc(-c2cnc(N)c(-c3cc(-c4ccc(CNC5CCOCC5)cc4)no3)n2)cc1 [Compound II-2, 5-[4-[1,2,2,2-tetradeuterio-1-(trideuteriomethyl)ethyl]sulfonylphenyl]-3-[3-[4-[(tetrahydropyran-4-ylamino)methyl]phenyl]isoxazol-5-yl]pyrazin-2-amine]	59 nM	0.105 nM					39 nM							
CC(C)S(=O)(=O)c1ccc(-c2cnc(N)c(-c3cc(-c4ccc(CN[C@H]5CCOC5)cc4)no3)n2)cc1 [Compound P-110, reference compound]													no sensitization	no sensitisation

Continued by falling IC50 [1], values first:

IC50 [1]	Ki (full-length ATR)	IC50 (intracellular ATR)	clearance [3]	half-life [3]	Vd ([3]; read-out: Vss)	Compound	Cisplatin sensitization [2]	% T/C (tumour size of treatment group compared with control group) (Colo205 model; day 13, irinotecan 20 mg/kg, compound 40 mg/kg PO qd3 of a four-day cycle, five cycles)	Effect on tumors (Colo205 model; irinotecan 20 mg/kg, compound orally as a solution 40 mg/kg, PO qd3, five cycles)	Effect on tumors (primary NSCLC model; cisplatin 3 mg/kg, compound 30 mg/kg uid q2d)	% T/C (tumour size of treatment group compared with control group) (primary NSCLC model; day 20, cisplatin 3 mg/kg, compound 30 mg/kg uid q2d)	Oral exposure in tumors [4]	Sensitization (Colo205 model; same model (irinotecan), compound 45 mg/kg twice a day (bid))	Sensitisation (primary NSCLC model; same model (cisplatin), compound 30 mpk bid (on/1 day off))
280 nM	0.26 nM	46 nM				CC(C)S(=O)(=O)c1ccc(-c2cnc(N)c(-c3cc(-c4ccc(CN[C@H]5CCOC5)cc4)no3)n2)cc1 [P-110 (S), reference compound]	156 nM							
205 nM	0.29 nM	54 nM	12.7 mL/min/kg	2.7 h		CC(C)S(=O)(=O)c1ccc(-c2cnc(N)c(-c3cc(-c4ccc(CN[C@@H]5CCOC5)cc4)no3)n2)cc1 [P-110 (R), reference compound]	78 nM							

Reference: patent US8846686B2, “Compounds useful as inhibitors of ATR kinase” (Vertex Pharmaceuticals Incorporated, priority 2011, dated 2014)
